The results in this text go back to BindingDB's records for doi:10.1016/j.bmcl.2006.04.082 (Pharmacopeia Drug Discovery, 2006).

In the assay the target is T1, C-X-C chemokine receptor type 2 (Homo sapiens, UniProt P25025).
T1 sequence (P25025 whole entry): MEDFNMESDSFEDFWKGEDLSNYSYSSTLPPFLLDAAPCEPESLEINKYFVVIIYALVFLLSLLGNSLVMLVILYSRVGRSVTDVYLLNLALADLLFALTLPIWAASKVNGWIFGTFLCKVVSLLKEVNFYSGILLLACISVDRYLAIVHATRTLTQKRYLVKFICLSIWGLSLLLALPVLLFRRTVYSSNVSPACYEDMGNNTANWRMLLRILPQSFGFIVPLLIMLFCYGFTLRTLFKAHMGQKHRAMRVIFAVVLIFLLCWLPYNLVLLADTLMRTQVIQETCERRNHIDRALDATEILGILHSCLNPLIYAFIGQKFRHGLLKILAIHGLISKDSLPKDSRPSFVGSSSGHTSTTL
Description: Displacement of [125I]IL8 from human CXCR2 expressed in CHO cells.

In turn, `CC(C)Nc1c(Nc2cccc(C(=O)N(C)C)c2O)c(=O)c1=O` [2-hydroxy-3-(2-(isopropylamino)-3,4-dioxocyclobut-1-enylamino)-N,N-dimethylbenzamide] showed an IC50 of 10 nM.

In the case of `CN(C)C(=O)c1cccc(Nc2c(NC3CCCCC3)c(=O)c2=O)c1O` [3-(2-(cyclohexylamino)-3,4-dioxocyclobut-1-enylamino)-2-hydroxy-N,N-dimethylbenzamide], the half-maximal inhibitory concentration (IC50) amounted to 10 nM.

What is called IC50 is the concentration that inhibits the measured activity by half. A low value points to greater potency in that assay.
